Source: patent publication US20040038222A1 (priority 2001, published 2004)

Tested on: C57BL/6J and C3H/HeJ primary bone marrow-derived macrophages

brefeldin A [BFA]
Effect of BFA alone on viability: no effect | Susceptibility of resistant macrophages to intoxication with LF in the presence of BFA: completely susceptible
